According to patent publication US11168093B2, “Thienopyridine inhibitors of RIPK2” (Celgene Corporation, priority 2018, dated 2021):
pIC50: −log10 of the molar value. Each block holds one compound with its values, some of them ahead of it.

Molecular target: RIPK2 enzyme (Homo sapiens (Human), UniProt O43353)
Assay: RIPK2 inhibition assay, TR-FRET LanthaScreen Tracer 199 screening assay
Assay type: binding
Details: 5 nM RIPK2 enzyme, Tracer 199 at 50 nM, Eu-anti-His Antibody at 2 nM, 1 hour incubation
Protocol: All data was collected using a standard TR-FRET screening assay: LanthaScreen Tracer 199 at 50 nM, Eu-anti-His Antibody at 2 nM, 5 nM RIPK2 enzyme, and 1× Kinase Reaction Buffer. There was a 1 hour incubation prior to read. TR-FRET signal of the interaction (340Ex/665Em/615Em) was read at room temperature with standard setting. Background was subtracted of wells containing no enzyme. Percent inhibition was based on uninhibited controls log (inhibitor) vs. response. Variable slope equation was used with no constraints: Log Y=Bottom+(Top−Bottom)/(1+10^((Log IC50−X)*Hill Slope)).
The compound numbers correspond to the compound numbers above.

Chain of RIPK2 enzyme (O43353 whole entry): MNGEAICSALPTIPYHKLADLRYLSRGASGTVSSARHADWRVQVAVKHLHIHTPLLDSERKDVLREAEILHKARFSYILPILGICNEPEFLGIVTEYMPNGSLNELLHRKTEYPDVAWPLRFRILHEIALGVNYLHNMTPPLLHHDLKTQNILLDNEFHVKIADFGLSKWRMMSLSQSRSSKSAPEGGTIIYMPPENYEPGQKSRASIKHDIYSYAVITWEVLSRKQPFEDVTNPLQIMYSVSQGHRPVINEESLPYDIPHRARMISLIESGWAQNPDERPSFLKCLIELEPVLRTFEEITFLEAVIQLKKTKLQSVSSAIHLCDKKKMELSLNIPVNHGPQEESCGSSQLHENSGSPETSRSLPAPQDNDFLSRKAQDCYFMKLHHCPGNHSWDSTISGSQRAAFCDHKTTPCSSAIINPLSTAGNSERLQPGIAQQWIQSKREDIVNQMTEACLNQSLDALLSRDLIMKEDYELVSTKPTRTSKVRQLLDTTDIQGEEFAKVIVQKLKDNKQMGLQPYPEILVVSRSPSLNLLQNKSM

Structure (SMILES): CC1NCCCC1c1cc2c(Nc3ccc4scnc4c3)c(F)cnc2s1 (single isomer, unassigned) [Example 119b, N-(5-fluoro-2-(2-methylpiperidin-3-yl)thieno[2,3-b]pyridin-4-yl)benzo[d]thiazol-5-amine]
pIC50: ≥ 8.00

Structure (SMILES): CC1NCCCC1c1cc2c(Nc3ccc4scnc4c3)c(F)cnc2s1 (single isomer, unassigned) [Example 119c, N-(5-fluoro-2-(2-methylpiperidin-3-yl)thieno[2,3-b]pyridin-4-yl)benzo[d]thiazol-5-amine]
pIC50: ≥ 8.00

Structure (SMILES): CC1NCCCC1c1cc2c(Nc3ccc4scnc4c3)c(F)cnc2s1 (single isomer, unassigned) [Example 119d, N-(5-fluoro-2-(2-methylpiperidin-3-yl)thieno[2,3-b]pyridin-4-yl)benzo[d]thiazol-5-amine]
pIC50: ≤ 7.30

Structure (SMILES): CC1C(c2cc3c(Nc4ccc5scnc5c4)c(F)cnc3s2)CCCN1C (single isomer, unassigned) [Example 120c, N-(2-(1,2-dimethylpiperidin-3-yl)-5-fluorothieno[2,3-b]pyridin-4-yl)benzo[d]-thiazol-5-amine]
pIC50: ≥ 8.00

Structure (SMILES): CC1NCCCC1c1cc2c(Nc3cc4ncsc4cc3F)c(F)cnc2s1 (single isomer, unassigned) [Example 122b, 6-fluoro-N-(5-fluoro-2-(2-methylpiperidin-3-yl)thieno[2,3-b]pyridin-4-yl) benzo[d]thiazol-5-amine]
pIC50: 7.30 to 7.70

Structure (SMILES): CC1NCCCC1c1cc2c(Nc3ccc4scnc4c3F)c(F)cnc2s1 (single isomer, unassigned) [Example 124c, 4-fluoro-N-(5-fluoro-2-(2-methylpiperidin-3-yl)thieno[2,3-b]pyridin-4-yl)benzo[d]thiazol-5-amine]
pIC50: ≥ 8.00

Structure (SMILES): CC1NCCCC1c1cc2c(Nc3ccc4scnc4c3F)c(F)cnc2s1 (single isomer, unassigned) [Example 124d, 4-fluoro-N-(5-fluoro-2-(2-methylpiperidin-3-yl)thieno[2,3-b]pyridin-4-yl)benzo[d]thiazol-5-amine]
pIC50: ≤ 7.30

Structure (SMILES): CC1C(c2cc3c(Nc4ccc5scnc5c4F)c(F)cnc3s2)CCCN1C (single isomer, unassigned) [Example 125c, N-(2-(1,2-dimethylpiperidin-3-yl)-5-fluorothieno[2,3-b]pyridin-4-yl)-4-fluorobenzo[d]thiazol-5-amine]
pIC50: ≥ 8.00

Structure (SMILES): CC1C(c2cc3c(Nc4ccc5scnc5c4F)c(F)cnc3s2)CCCN1C (single isomer, unassigned) [Example 125d, N-(2-(1,2-dimethylpiperidin-3-yl)-5-fluorothieno[2,3-b]pyridin-4-yl)-4-fluorobenzo[d]thiazol-5-amine]
pIC50: ≤ 7.30

Structure (SMILES): CC1NCCCC1c1cc2c(Nc3c(F)cc4scnc4c3F)c(F)cnc2s1 (single isomer, unassigned) [Example 126d, 4,6-difluoro-N-(5-fluoro-2-(2-methylpiperidin-3-yl)thieno[2,3-b]pyridin-4-yl)benzo[d]thiazol-5-amine]
pIC50: 7.70 to 8.00

Structure (SMILES): CC1NCCC=C1c1cc2c(Nc3ccc4scnc4c3)ccnc2s1 (centres unmarked) [Example 1, N-(2-(2-methyl-1,2,5,6-tetrahydropyridin-3-yl)thieno[2,3-b]pyridin-4-yl)benzo[d]thiazol-5-amine]
pIC50: ≥ 8.00

Structure (SMILES): CC1NCCCC1c1cc2c(Nc3ccc4scnc4c3)ccnc2s1 (centres unmarked) [Example 3, N-(2-(2-methylpiperidin-3-yl)thieno[2,3-b]pyridin-4-yl)benzo[d]thiazol-5-amine]
pIC50: ≥ 8.00

Structure (SMILES): CC1C(c2cc3c(Nc4ccc5scnc5c4)ccnc3s2)CCCN1C (centres unmarked) [Example 4, N-(2-(1,2-dimethylpiperidin-3-yl)thieno[2,3-b]pyridin-4-yl)benzo[d]thiazol-5-amine]
pIC50: ≥ 8.00

Structure (SMILES): CCN1CCC=C(c2cc3c(Nc4ccc5scnc5c4)ccnc3s2)C1C (centres unmarked) [Example 5, N-(2-(1-ethyl-2-methyl-1,2,5,6-tetrahydropyridin-3-yl)thieno[2,3-b]pyridin-4-yl)benzo[d]thiazol-5-amine]
pIC50: ≥ 8.00

Structure (SMILES): CC(C)N1CCC=C(c2cc3c(Nc4ccc5scnc5c4)ccnc3s2)C1C (centres unmarked) [Example 7, N-(2-(1-isopropyl-2-methyl-1,2,5,6-tetrahydropyridin-3-yl)thieno[2,3-b]pyridin-4-yl)benzo[d]thiazol-5-amine]
pIC50: ≥ 8.00

Structure (SMILES): COCC(=O)N1CCC=C(c2cc3c(Nc4ccc5scnc5c4)ccnc3s2)C1C (centres unmarked) [Example 11, 1-(5-(4-(benzo[d]thiazol-5-ylamino)thieno[2,3-b]pyridin-2-yl)-6-methyl-3,6-dihydro-pyridin-1(2H)-yl)-2-methoxyethan-1-one]
pIC50: ≥ 8.00

The next lines start with the values.

pIC50: 7.70 to 8.00
Structure (SMILES): CC1NCCCCC1c1cc2c(Nc3c(F)cc4scnc4c3F)ccnc2s1 (single isomer, unassigned) [Example 118d, 4,6-difluoro-N-(2-(2-methylazepan-3-yl)thieno[2,3-b]pyridin-4-yl)benzo[d]thiazol-5-amine]

pIC50: 7.30 to 7.70
Structure (SMILES): CC1C(c2cc3c(Nc4ccc5scnc5c4)c(F)cnc3s2)CCCN1C (single isomer, unassigned) [Example 120a, N-(2-(1,2-dimethylpiperidin-3-yl)-5-fluorothieno[2,3-b]pyridin-4-yl)benzo[d]-thiazol-5-amine]

pIC50: ≥ 8.00
Structure (SMILES): CC1C(c2cc3c(Nc4ccc5scnc5c4)c(F)cnc3s2)CCCN1C (single isomer, unassigned) [Example 120b, N-(2-(1,2-dimethylpiperidin-3-yl)-5-fluorothieno[2,3-b]pyridin-4-yl)benzo[d]-thiazol-5-amine]

pIC50: ≤ 7.30
Structure (SMILES): CC1C(c2cc3c(Nc4ccc5scnc5c4)c(F)cnc3s2)CCCN1C (single isomer, unassigned) [Example 120d, N-(2-(1,2-dimethylpiperidin-3-yl)-5-fluorothieno[2,3-b]pyridin-4-yl)benzo[d]-thiazol-5-amine]

pIC50: 7.70 to 8.00
Structure (SMILES): CC1NCCCC1c1cc2c(Nc3cc4ncsc4cc3F)c(F)cnc2s1 (single isomer, unassigned) [Example 122c, 6-fluoro-N-(5-fluoro-2-(2-methylpiperidin-3-yl)thieno[2,3-b]pyridin-4-yl) benzo[d]thiazol-5-amine]

pIC50: 7.30 to 7.70
Structure (SMILES): CC1C(c2cc3c(Nc4cc5ncsc5cc4F)c(F)cnc3s2)CCCN1C (single isomer, unassigned) [Example 123d, N-(2-(1,2-dimethylpiperidin-3-yl)-5-fluorothieno[2,3-b]pyridin-4-yl)-6-fluorobenzo[d]thiazol-5-amine]

pIC50: ≤ 7.30
Structure (SMILES): CC1NCCCC1c1cc2c(Nc3ccc4scnc4c3F)c(F)cnc2s1 (single isomer, unassigned) [Example 124a, 4-fluoro-N-(5-fluoro-2-(2-methylpiperidin-3-yl)thieno[2,3-b]pyridin-4-yl)benzo[d]thiazol-5-amine]

pIC50: ≥ 8.00
Structure (SMILES): CC1NCCCC1c1cc2c(Nc3ccc4scnc4c3F)c(F)cnc2s1 (single isomer, unassigned) [Example 124b, 4-fluoro-N-(5-fluoro-2-(2-methylpiperidin-3-yl)thieno[2,3-b]pyridin-4-yl)benzo[d]thiazol-5-amine]

pIC50: ≤ 7.30
Structure (SMILES): CC1C(c2cc3c(Nc4ccc5scnc5c4F)c(F)cnc3s2)CCCN1C (single isomer, unassigned) [Example 125a, N-(2-(1,2-dimethylpiperidin-3-yl)-5-fluorothieno[2,3-b]pyridin-4-yl)-4-fluorobenzo[d]thiazol-5-amine]

pIC50: 7.70 to 8.00
Structure (SMILES): CC1C(c2cc3c(Nc4ccc5scnc5c4F)c(F)cnc3s2)CCCN1C (single isomer, unassigned) [Example 125b, N-(2-(1,2-dimethylpiperidin-3-yl)-5-fluorothieno[2,3-b]pyridin-4-yl)-4-fluorobenzo[d]thiazol-5-amine]

pIC50: 7.30 to 7.70
Structure (SMILES): CC1C(c2cc3c(Nc4c(F)cc5scnc5c4F)c(F)cnc3s2)CCCN1C (single isomer, unassigned) [Example 127a]

pIC50: 7.70 to 8.00
Structure (SMILES): CC1C(c2cc3c(Nc4c(F)cc5scnc5c4F)c(F)cnc3s2)CCCN1C (single isomer, unassigned) [Example 127d]

pIC50: ≥ 8.00
Structure (SMILES): CC1C(c2cc3c(Nc4ccc5scnc5c4)ccnc3s2)=CCCN1C (centres unmarked) [Example 2, N-(2-(1,2-dimethyl-1,2,5,6-tetrahydropyridin-3-yl)thieno[2,3-b]pyridin-4-yl)benzo[d]thiazol-5-amine]

pIC50: ≥ 8.00
Structure (SMILES): C[C@@H]1[C@H](c2cc3c(Nc4ccc5scnc5c4)ccnc3s2)CCCN1C [Example 4c, N-(2-(1,2-dimethylpiperidin-3-yl)thieno[2,3-b]pyridin-4-yl)benzo[d]thiazol-5-amine]

pIC50: ≥ 8.00
Structure (SMILES): C[C@H]1[C@@H](c2cc3c(Nc4ccc5scnc5c4)ccnc3s2)CCCN1C [Example 4d, N-(2-(1,2-dimethylpiperidin-3-yl)thieno[2,3-b]pyridin-4-yl)benzo[d]thiazol-5-amine]

pIC50: ≥ 8.00
Structure (SMILES): CCN1CCCC(c2cc3c(Nc4ccc5scnc5c4)ccnc3s2)C1C (centres unmarked) [Example 6, N-(2-(1-ethyl-2-methylpiperidin-3-yl)thieno[2,3-b]pyridin-4-yl)benzo[d]thiazol-5-amine]

pIC50: ≥ 8.00
Structure (SMILES): CC(C)N1CCCC(c2cc3c(Nc4ccc5scnc5c4)ccnc3s2)C1C (centres unmarked) [Example 8, N-(2-(1-isopropyl-2-methylpiperidin-3-yl)thieno[2,3-b]pyridin-4-yl)benzo[d]thiazol-5-amine]

pIC50: 7.70 to 8.00
Structure (SMILES): CC(=O)N1CCC=C(c2cc3c(Nc4ccc5scnc5c4)ccnc3s2)C1C (centres unmarked) [Example 9, 1-(5-(4-(benzo[d]thiazol-5-ylamino)thieno[2,3-b]pyridin-2-yl)-6-methyl-3,6-dihydropyridin-1(2H)-yl)ethan-1-one]

pIC50: ≥ 8.00
Structure (SMILES): CC(=O)N1CCCC(c2cc3c(Nc4ccc5scnc5c4)ccnc3s2)C1C (centres unmarked) [Example 10, 1-(3-(4-(benzo[d]thiazol-5-ylamino)thieno[2,3-b]pyridin-2-yl)-2-methylpiperidin-1-yl)ethan-1-one]
